Where a SMILES comes first, the peptide text is derived from it. [ ]: non-standard residue; d: D form. The star is where a group is joined. Myristoyl = CCCCCCCCCCCCCC(=O)*; Ac6c = NC1(C(=O)O)CCCCC1; Orn = NCCC[C@H](N)C(=O)O; X1 = CCCN1C(=O)CC(*)C1=O
Key:
[1] = Human plasma half-life assay (LC-MS); assay type: in vitro ADME; conditions: incubated at 37° C., read-out: Human Plasma T½ (converted)
In short: (§1)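 Aliquots taken from human or rat plasma at time points up to 72 h, quenched with formic acid and acetonitrile, centrifuged. Supernatant analyzed by LC-MS (ESI, positive ion, full scan) on a C8 column with a water/acetonitrile 1% formic acid gradient.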

[2] = Rat plasma half-life assay (LC-MS); assay type: in vitro ADME; conditions: incubated at 37° C., read-out: Rat Plasma T½ (converted)
In short: as §1

SMILES | half-life at 0.1 mg/ml [1] | half-life at 0.1 mg/ml [2] | half-life at 0.1 mg/mL [1] | half-life at 0.1 mg/mL [2]
CC[C@H](C)[C@H](NC(=O)[C@H](CO)NC(=O)[C@H](Cc1ccc(O)cc1)NC(=O)[C@H](CC(=O)O)NC(=O)[C@H](CO)NC(=O)C1(NC(C)=O)CCCCC1)C(=O)N[C@@H](C)C(=O)N[C@@H](CCSC)C(=O)N[C@@H](CC(=O)O)C(=O)N[C@@H](CCCCN)C(=O)N[C@H](C(=O)N[C@@H](Cc1c[nH]cn1)C(=O)N[C@@H](CCC(N)=O)C(=O)N[C@@H](CCC(N)=O)C(=O)N[C@@H](CC(=O)O)C(=O)N[C@@H](Cc1ccccc1)C(=O)N[C@H](C(=O)N[C@@H](CC(N)=O)C(=O)N[C@@H](Cc1c[nH]c2ccccc12)C(=O)N[C@@H](CC(C)C)C(=O)N[C@@H](CC(C)C)C(=O)N[C@@H](C)C(=O)N[C@@H](CCC(N)=O)C(=O)N[C@@H](CCCCN)C(=O)NCC(=O)N[C@@H](CCCCN)C(=O)N[C@@H](CCCCN)C(=O)N[C@@H](CC(N)=O)C(=O)N[C@@H](CC(=O)O)C(=O)N[C@@H](Cc1c[nH]c2ccccc12)C(=O)N[C@@H](CCCCN)C(=O)N[C@@H](Cc1c[nH]cn1)C(=O)N[C@@H](CC(N)=O)C(=O)N[C@H](C(=O)N[C@H](C(=O)N[C@@H](CCC(N)=O)C(=O)O)[C@@H](C)O)[C@@H](C)CC)C(C)C)[C@@H](C)CC [Example 1, (Ac-A6c^7)hGIP(7-42)-OH] | > 72 h | 11 h |  | 
CCCN1C(=O)CC(SC[C@H](NC(=O)[C@H](CCCCN)NC(=O)[C@H](CCC(N)=O)NC(=O)[C@H](C)NC(=O)[C@H](CC(C)C)NC(=O)[C@H](CC(C)C)NC(=O)[C@H](Cc2c[nH]c3ccccc23)NC(=O)[C@H](CC(N)=O)NC(=O)[C@@H](NC(=O)[C@H](Cc2ccccc2)NC(=O)[C@H](CC(=O)O)NC(=O)[C@H](CCC(N)=O)NC(=O)[C@H](CCC(N)=O)NC(=O)[C@H](Cc2c[nH]cn2)NC(=O)[C@@H](NC(=O)[C@H](CCCCN)NC(=O)[C@H](CC(=O)O)NC(=O)[C@H](CCSC)NC(=O)[C@H](C)NC(=O)[C@@H](NC(=O)[C@H](CO)NC(=O)[C@H](Cc2ccc(O)cc2)NC(=O)[C@H](CC(=O)O)NC(=O)[C@H](CO)NC(=O)C2(NC(=O)[C@H](Cc3ccccc3)NC(C)=O)CCCCC2)[C@@H](C)CC)[C@@H](C)CC)C(C)C)C(N)=O)C1=O (stereo partly shown) [Example 33, [Ac-Phe^6, A6c^7, Cys(Psu)^31]hGIP(6-31)-NH2] |  |  | 13.6 h | 10.2 h
CCCCCCCCCCCCCC(=O)NCCC[C@H](NC(=O)[C@H](CCCCN)NC(=O)[C@H](CCC(N)=O)NC(=O)[C@H](C)NC(=O)[C@H](CC(C)C)NC(=O)[C@H](CC(C)C)NC(=O)[C@H](Cc1c[nH]c2ccccc12)NC(=O)[C@H](CC(N)=O)NC(=O)[C@@H](NC(=O)[C@H](Cc1ccccc1)NC(=O)[C@H](CC(=O)O)NC(=O)[C@H](CCC(N)=O)NC(=O)[C@H](CCC(N)=O)NC(=O)[C@H](Cc1c[nH]cn1)NC(=O)[C@@H](NC(=O)[C@H](CCCCN)NC(=O)[C@H](CC(=O)O)NC(=O)[C@H](CCSC)NC(=O)[C@H](C)NC(=O)[C@@H](NC(=O)[C@H](CO)NC(=O)[C@H](Cc1ccc(O)cc1)NC(=O)[C@H](CC(=O)O)NC(=O)[C@H](CO)NC(=O)C1(NC(C)=O)CCCCC1)[C@@H](C)CC)[C@@H](C)CC)C(C)C)C(=O)N[C@@H](CCCCN)C(=O)N[C@@H](CCCCN)C(=O)N[C@@H](CC(N)=O)C(=O)N[C@@H](CC(=O)O)C(=O)N[C@@H](Cc1c[nH]c2ccccc12)C(=O)N[C@@H](CCCCN)C(=O)N[C@@H](Cc1c[nH]cn1)C(=O)N[C@@H](CC(N)=O)C(=O)N[C@H](C(=O)N[C@H](C(=O)N[C@@H](CCC(N)=O)C(=O)O)[C@@H](C)O)[C@@H](C)CC [Example 12, [Ac-A6c^7, Orn^31(N-C(O)-(CH2)12-CH3)]hGIP(7-42)-OH] (Ac-[Ac6c]SDYSIAMDKIHQQDFVNWLLAQK[Orn](Myristoyl)KKNDWKHNITQ-OH) |  |  | 7.3 h | > 72 h
CCCN1C(=O)CC(SC[C@H](NC(=O)[C@H](Cc2c[nH]cn2)NC(=O)[C@H](CCCCN)NC(=O)[C@H](Cc2c[nH]c3ccccc23)NC(=O)[C@H](CC(=O)O)NC(=O)[C@H](CC(N)=O)NC(=O)[C@H](CCCCN)NC(=O)[C@H](CCCCN)NC(=O)CNC(=O)[C@H](CCCCN)NC(=O)[C@H](CCC(N)=O)NC(=O)[C@H](C)NC(=O)[C@H](CC(C)C)NC(=O)[C@H](CC(C)C)NC(=O)[C@H](Cc2c[nH]c3ccccc23)NC(=O)[C@H](CC(N)=O)NC(=O)[C@@H](NC(=O)[C@H](Cc2ccccc2)NC(=O)[C@H](CC(=O)O)NC(=O)[C@H](CCC(N)=O)NC(=O)[C@H](CCC(N)=O)NC(=O)[C@H](Cc2c[nH]cn2)NC(=O)[C@@H](NC(=O)[C@H](CCCCN)NC(=O)[C@H](CC(=O)O)NC(=O)[C@H](CCSC)NC(=O)[C@H](C)NC(=O)[C@@H](NC(=O)[C@H](CO)NC(=O)[C@H](Cc2ccc(O)cc2)NC(=O)[C@H](CC(=O)O)NC(=O)[C@H](CO)NC(=O)C2(NC(C)=O)CCCCC2)[C@@H](C)CC)[C@@H](C)CC)C(C)C)C(=O)N[C@H](C(=O)N[C@H](C(=O)N[C@@H](CCC(N)=O)C(=O)O)[C@@H](C)O)[C@@H](C)CC)C1=O (stereo partly shown) [Example 3, [Ac-A6c^7, Cys(Psu)^39]hGIP(7-42)-OH] (Ac-[Ac6c]SDYSIAMDKIHQQDFVNWLLAQKGKKNDWKHC(X1)ITQ-OH) |  |  | 16.4 h | 5.6 h
CCCC[C@H](NC(=O)[C@H](C)NC(=O)[C@@H](NC(=O)[C@H](CO)NC(=O)[C@H](Cc1ccc(O)cc1)NC(=O)[C@H](CC(=O)O)NC(=O)[C@H](CO)NC(=O)[C@@H](NC(=O)[C@H](Cc1ccccc1)NC(=O)[C@@H](NC(=O)CNC(=O)[C@@H]1CCCN1C(=O)CCc1ccc(O)cc1)[C@@H](C)O)[C@@H](C)CC)[C@@H](C)CC)C(=O)N[C@@H](CC(=O)O)C(=O)N[C@@H](CCCCN)C(=O)N[C@H](C(=O)N[C@@H](Cc1c[nH]cn1)C(=O)N[C@@H](CCC(N)=O)C(=O)N[C@@H](CCC(N)=O)C(=O)N[C@@H](CC(=O)O)C(=O)N[C@@H](Cc1ccccc1)C(=O)N[C@H](C(=O)N[C@@H](CC(N)=O)C(=O)N[C@@H](Cc1c[nH]c2ccccc12)C(=O)N[C@@H](CC(C)C)C(=O)N[C@@H](CC(C)C)C(=O)N[C@@H](C)C(=O)N[C@@H](CCC(N)=O)C(=O)N[C@@H](CCCCN)C(=O)NCC(=O)N[C@@H](CCCCN)C(=O)N[C@@H](CCCCN)C(=O)N[C@@H](CC(N)=O)C(=O)N[C@@H](CC(=O)O)C(=O)N[C@@H](Cc1c[nH]c2ccccc12)C(=O)N[C@@H](CCCCN)C(=O)N[C@@H](Cc1c[nH]cn1)C(=O)N[C@@H](CC(N)=O)C(=O)N[C@H](C(=O)N[C@H](C(=O)N[C@@H](CCC(N)=O)C(=O)O)[C@@H](C)O)[C@@H](C)CC)C(C)C)[C@@H](C)CC [Example 43, (4Hppa^2, Pro^3, Nle^14)hGIP(2-42)-OH] |  |  | > 53 h | 2.3 h
CCCN1C(=O)CC(SC[C@H](NC(=O)[C@H](CC(N)=O)NC(=O)[C@H](CCCCN)NC(=O)[C@H](CCCCN)NC(=O)CNC(=O)[C@H](CCCCN)NC(=O)[C@H](CCC(N)=O)NC(=O)[C@H](C)NC(=O)[C@H](CC(C)C)NC(=O)[C@H](CC(C)C)NC(=O)[C@H](Cc2c[nH]c3ccccc23)NC(=O)[C@H](CC(N)=O)NC(=O)[C@@H](NC(=O)[C@H](Cc2ccccc2)NC(=O)[C@H](CC(=O)O)NC(=O)[C@H](CCC(N)=O)NC(=O)[C@H](CCC(N)=O)NC(=O)[C@H](Cc2c[nH]cn2)NC(=O)[C@@H](NC(=O)[C@H](CCCCN)NC(=O)[C@H](CC(=O)O)NC(=O)[C@H](CCSC)NC(=O)[C@H](C)NC(=O)[C@@H](NC(=O)[C@H](CO)NC(=O)[C@H](Cc2ccc(O)cc2)NC(=O)[C@H](CC(=O)O)NC(=O)[C@H](CO)NC(=O)C2(NC(C)=O)CCCCC2)[C@@H](C)CC)[C@@H](C)CC)C(C)C)C(=O)N[C@@H](Cc2c[nH]c3ccccc23)C(=O)N[C@@H](CCCCN)C(=O)N[C@@H](Cc2c[nH]cn2)C(=O)N[C@@H](CC(N)=O)C(=O)N[C@H](C(=O)N[C@H](C(=O)N[C@@H](CCC(N)=O)C(=O)O)[C@@H](C)O)[C@@H](C)CC)C1=O (stereo partly shown) [Example 6, [Ac-A6c^7, Cys(Psu)^35]hGIP(7-42)-OH] (Ac-[Ac6c]SDYSIAMDKIHQQDFVNWLLAQKGKKNC(X1)WKHNITQ-OH) |  |  | 8 h | 3.2 h
CCCC[C@H](NC(=O)[C@H](C)NC(=O)[C@@H](NC(=O)C(C)(C)NC(=O)[C@H](Cc1ccc(O)cc1)NC(=O)[C@H](CC(=O)O)NC(=O)[C@H](CO)NC(=O)[C@@H](NC(=O)[C@@H](N)Cc1ccccc1)[C@@H](C)CC)[C@@H](C)CC)C(=O)N[C@@H](CC(=O)O)C(=O)N[C@@H](CCCCN)C(=O)N[C@H](C(=O)N[C@@H](Cc1c[nH]cn1)C(=O)N[C@@H](CCC(N)=O)C(=O)N[C@@H](CCC(N)=O)C(=O)N[C@@H](CC(=O)O)C(=O)N[C@@H](Cc1ccccc1)C(=O)N[C@H](C(=O)N[C@@H](CC(N)=O)C(=O)N[C@@H](Cc1c[nH]c2ccccc12)C(=O)N[C@@H](CC(C)C)C(=O)N[C@@H](CC(C)C)C(=O)N[C@@H](C)C(=O)N[C@@H](CCC(N)=O)C(=O)N[C@@H](CCCCN)C(N)=O)C(C)C)[C@@H](C)CC [Example 37, (Aib^11, Nle^14)hGIP(6-30)-NH2] (HELM PEPTIDE1{F.I.S.D.Y.[Aib].I.A.[Nle].D.K.I.H.Q.Q.D.F.V.N.W.L.L.A.Q.K.[am]}$$$$V2.0) |  |  | 13.5 h | 28.5 h
CCCN1C(=O)CC(SC[C@H](NC(=O)[C@H](CCCCN)NC(=O)[C@H](CCC(N)=O)NC(=O)[C@H](C)NC(=O)[C@H](CC(C)C)NC(=O)[C@H](CC(C)C)NC(=O)[C@H](Cc2c[nH]c3ccccc23)NC(=O)[C@H](CC(N)=O)NC(=O)[C@@H](NC(=O)[C@H](Cc2ccccc2)NC(=O)[C@H](CC(=O)O)NC(=O)[C@H](CCC(N)=O)NC(=O)[C@H](CCC(N)=O)NC(=O)[C@H](Cc2c[nH]cn2)NC(=O)[C@@H](NC(=O)[C@H](CCCCN)NC(=O)[C@H](CC(=O)O)NC(=O)[C@H](CCSC)NC(=O)[C@H](C)NC(=O)[C@@H](NC(=O)[C@H](CO)NC(=O)[C@H](Cc2ccc(O)cc2)NC(=O)[C@H](CC(=O)O)NC(=O)[C@H](CO)NC(=O)C2(NC(C)=O)CCCCC2)[C@@H](C)CC)[C@@H](C)CC)C(C)C)C(N)=O)C1=O (stereo partly shown) [Example 29, [Ac-A6c^7, Cys(Psu)^31]hGIP(7-31)-NH2] |  |  | 12.2 h | 7 h

From patent US8450266B2 (Ipsen Pharma S.A.S., priority 2008, dated 2013)
